Measurements published in PubChem BioAssay AID248 (DTP/NCI, 2004).
Where “and” joins values, the source holds several entries; their conditions need not be identical. Identical values can stand only once. Toxic doses and inconclusive results are not listed.

System: L1210 leukemia ip in BDF1 mice, survival T/C
Assay: NCI In Vivo Anticancer Drug Screen. Data for tumor model L1210 Leukemia (intraperitoneal) in B6D2F1 (BDF1) mice
Settings: endpoint: mean survival time, higher = longer survival
Summary of the method: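 Survival endpoint. Drug-treated group vs vehicle group, expressed as T divided by C. Tumor passaged by transplantation.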

[1] = dose: 400.0 mg/kg/injection, schedule: Q01DX001 (ip), vehicle: saline
[2] = dose: 100.0 mg/kg/injection, schedule: Q04DX003 (ip), vehicle: saline
[3] = dose: 100.0 mg/kg/injection, schedule: Q01DX001 (ip), vehicle: carboxymethylcellulose (CMC)
[4] = dose: 200.0 mg/kg/injection, schedule: Q01DX001 (ip), vehicle: carboxymethylcellulose (CMC)
[5] = dose: 400.0 mg/kg/injection, schedule: Q01DX001 (ip), vehicle: carboxymethylcellulose (CMC)

Compound: Nn1cnc2c(=S)nc[nH]c21
- T/C (dose: 42.0 mg/kg/injection, schedule: Q01DX015 (ip), vehicle: other): 101 % of control
- T/C (dose: 72.0 mg/kg/injection, schedule: Q01DX015 (ip), vehicle: other): 101 % of control
- T/C (dose: 100.0 mg/kg/injection, schedule: Q01DX001 (ip), vehicle: other): 102 % of control
- T/C (dose: 177.0 mg/kg/injection, schedule: Q01DX001 (ip), vehicle: other): 97 % of control
- T/C (dose: 177.0 mg/kg/injection, schedule: Q01DX001 (ip), vehicle: saline): 102 % of control
- T/C (dose: 200.0 mg/kg/injection, schedule: Q01DX001 (ip), vehicle: other): 102 % of control
- T/C (dose: 200.0 mg/kg/injection, schedule: Q01DX015 (ip), vehicle: other): 86 % of control
- T/C (dose: 266.0 mg/kg/injection, schedule: Q01DX001 (ip), vehicle: other): 115 % of control
- T/C (dose: 266.0 mg/kg/injection, schedule: Q01DX001 (ip), vehicle: saline): 101 % of control
- T/C (dose: 400.0 mg/kg/injection, schedule: Q01DX001 (ip), vehicle: other): 154 % of control and 164 % of control
- T/C [1]: 104 % of control
- T/C (dose: 600.0 mg/kg/injection, schedule: Q01DX001 (ip), vehicle: saline): 167 % of control

Compound: NCCN1CCc2ccccc2C1
- T/C (dose: 6.25 mg/kg/injection, schedule: Q01DX009 (ip), vehicle: saline): 93 % of control
- T/C (dose: 12.5 mg/kg/injection, schedule: Q01DX009 (ip), vehicle: saline): 106 % of control
- T/C (dose: 25.0 mg/kg/injection, schedule: Q01DX009 (ip), vehicle: saline): 102 % of control

Compound: CCOC(=O)Nc1ccc(Cl)cc1
- T/C (dose: 100.0 mg/kg/injection, schedule: Q04DX002 (ip), vehicle: Klucel (hydroxypropylcellulose) (HPC)): 89 % of control
- T/C (dose: 200.0 mg/kg/injection, schedule: Q04DX002 (ip), vehicle: Klucel (hydroxypropylcellulose) (HPC)): 108 % of control
- T/C (dose: 400.0 mg/kg/injection, schedule: Q04DX002 (ip), vehicle: Klucel (hydroxypropylcellulose) (HPC)): 108 % of control

Compound: COc1cc2c(cc1NC1=NCCO1)OCO2
- T/C (dose: 75.0 mg/kg/injection, schedule: Q04DX003 (ip), vehicle: Klucel (hydroxypropylcellulose) (HPC)): 101 % of control
- T/C (dose: 150.0 mg/kg/injection, schedule: Q04DX003 (ip), vehicle: Klucel (hydroxypropylcellulose) (HPC)): 93 % of control
- T/C (dose: 300.0 mg/kg/injection, schedule: Q04DX003 (ip), vehicle: Klucel (hydroxypropylcellulose) (HPC)): 103 % of control

Compound: CCC1(c2ccccc2)C(=O)NC(=O)N(CN2CCOCC2)C1=O (stereo not given)
- T/C (dose: 50.0 mg/kg/injection, schedule: Q01DX009 (ip), vehicle: saline with Tween-80): 114 % of control
- T/C (dose: 100.0 mg/kg/injection, schedule: Q01DX009 (ip), vehicle: saline with Tween-80): 93 % of control
- T/C (dose: 200.0 mg/kg/injection, schedule: Q01DX009 (ip), vehicle: saline with Tween-80): 97 % of control

Compound: O=S(O)c1ncnc2nc[nH]c12
- T/C [2]: 101 % of control
- T/C (dose: 200.0 mg/kg/injection, schedule: Q04DX003 (ip), vehicle: saline): 106 % of control
- T/C (dose: 400.0 mg/kg/injection, schedule: Q04DX003 (ip), vehicle: saline): 95 % of control

Compound: OCC1OC(n2cnc3nccnc32)C(O)C1O (stereo not given)
- T/C (dose: 100.0 mg/kg/injection, schedule: Q01DX005 (ip), vehicle: saline): 98 % of control
- T/C (dose: 200.0 mg/kg/injection, schedule: Q01DX005 (ip), vehicle: saline): 110 % of control

Compound: Cc1cccn2c(=O)cc(Cl)nc12
- T/C [3]: 96 % of control
- T/C [4]: 98 % of control

Compound: CC(=O)OCC1OC(COC(C)=O)(c2ccc(C)cc2)C(OC(C)=O)C1OC(C)=O (stereo not given)
- T/C (dose: 50.0 mg/kg/injection, schedule: Q01DX001 (ip), vehicle: saline): 97 % of control
- T/C (dose: 100.0 mg/kg/injection, schedule: Q01DX001 (ip), vehicle: saline): 103 % of control
- T/C (dose: 200.0 mg/kg/injection, schedule: Q01DX001 (ip), vehicle: saline): 94 % of control
- T/C [1]: 100 % of control

Compound: CCN(CC)CCCNc1cc(C)c(C)cc1[N+](=O)[O-]
- T/C [2]: 100 % of control

Compound: CC(NC(=O)c1ccc2ccccc2n1)C(=O)O (stereo not given)
- T/C [3]: 92 % of control
- T/C [4]: 87 % of control
- T/C [5]: 89 % of control

Compound: O=C(Nc1ccc2c(c1)C(S)c1ccccc1-2)C(F)(F)F (stereo not given)
- T/C [3]: 96 % of control
- T/C [4]: 101 % of control
- T/C [5]: 95 % of control

Compound: CC(=O)OC12CCC34CCC5(CCC(OC(C)=O)(O1)C5C32)O4 (stereo not given)
- T/C (dose: 100.0 mg/kg/injection, schedule: Q01DX001 (ip), vehicle: saline with Tween-80): 105 % of control
- T/C (dose: 200.0 mg/kg/injection, schedule: Q01DX001 (ip), vehicle: saline with Tween-80): 98 % of control
- T/C (dose: 400.0 mg/kg/injection, schedule: Q01DX001 (ip), vehicle: saline with Tween-80): 98 % of control
